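Five compound concentrations were applied to cells in 96-well plates for 48 hours; endpoints were derived by simple linear interpolation of the resulting dose-response curve. TGI is the concentration that stops growth completely.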
How the values were obtained:
Assay in all cases: NCI tumour cell line growth inhibition, 48 h
BT-549 breast = tested on: BT-549 breast
COLO 205 colon = tested on: COLO 205 colon
HOP-62 NSCLC = tested on: HOP-62 NSCLC
IGROV1 ovarian = tested on: IGROV1 ovarian
KM12 colon = tested on: KM12 colon
MALME-3M melanoma = tested on: MALME-3M melanoma
SK-MEL-2 melanoma = tested on: SK-MEL-2 melanoma
SNB-19 CNS = tested on: SNB-19 CNS
SNB-75 CNS = tested on: SNB-75 CNS
SW-620 colon = tested on: SW-620 colon

Cc1c(-c2ccccc2)nn2cc(-c3ccccc3)nnc12
TGI (BT-549 breast): 87.3 µM | TGI (COLO 205 colon): 62 µM | TGI (HOP-62 NSCLC): > 100 µM | TGI (IGROV1 ovarian): > 100 µM | TGI (KM12 colon): > 100 µM | TGI (MALME-3M melanoma): 39.6 µM | TGI (SK-MEL-2 melanoma): 47 µM | TGI (SNB-19 CNS): > 100 µM | TGI (SNB-75 CNS): > 100 µM | TGI (SW-620 colon): 49.5 µM

CSc1c(C#N)c(N)nc2c(N=Nc3ccc(Br)cc3)c(N)nn12
TGI (BT-549 breast): 37.3 µM | TGI (COLO 205 colon): 25.1 µM | TGI (HOP-62 NSCLC): 32.3 µM | TGI (IGROV1 ovarian): 8.82 µM | TGI (KM12 colon): 23.6 µM | TGI (MALME-3M melanoma): 24 µM | TGI (SK-MEL-2 melanoma): 17.2 µM | TGI (SNB-19 CNS): 69.6 µM | TGI (SNB-75 CNS): 28.8 µM | TGI (SW-620 colon): 12.7 µM

O=c1cc(NNc2cccc(F)c2)[nH]c(=O)[nH]1
TGI (BT-549 breast): > 100 µM | TGI (COLO 205 colon): > 100 µM | TGI (HOP-62 NSCLC): > 100 µM | TGI (IGROV1 ovarian): 46.7 µM | TGI (KM12 colon): > 100 µM | TGI (MALME-3M melanoma): 34.9 µM | TGI (SK-MEL-2 melanoma): > 100 µM | TGI (SNB-19 CNS): > 100 µM | TGI (SNB-75 CNS): > 100 µM | TGI (SW-620 colon): 34.5 µM

COc1cc(C2c3cc4c(cc3OC(Nc3ccccc3)C2C)OCO4)cc(OC)c1O (stereo unspecified)
TGI (BT-549 breast): 26 µM | TGI (COLO 205 colon): 33.5 µM | TGI (IGROV1 ovarian): 48 µM | TGI (KM12 colon): 38.7 µM | TGI (MALME-3M melanoma): 21.6 µM | TGI (SK-MEL-2 melanoma): 8.59 µM | TGI (SNB-19 CNS): > 100 µM | TGI (SNB-75 CNS): 7.35 µM | TGI (SW-620 colon): 16.3 µM

C(=Nc1ccc(-c2nc3ccccc3[nH]2)cc1)c1ccc[nH]1
TGI (BT-549 breast): > 100 µM | TGI (COLO 205 colon): > 100 µM | TGI (HOP-62 NSCLC): > 100 µM | TGI (IGROV1 ovarian): > 100 µM | TGI (KM12 colon): > 100 µM | TGI (MALME-3M melanoma): > 100 µM | TGI (SK-MEL-2 melanoma): > 100 µM | TGI (SNB-75 CNS): > 100 µM | TGI (SW-620 colon): > 100 µM

CCCCCc1nnc(NS(=O)(=O)c2ccc(NC(=O)OCC(C)C)cc2)s1
TGI (BT-549 breast): > 100 µM | TGI (COLO 205 colon): 41.6 µM | TGI (HOP-62 NSCLC): > 100 µM | TGI (IGROV1 ovarian): 97.7 µM | TGI (KM12 colon): > 100 µM | TGI (MALME-3M melanoma): 94.6 µM | TGI (SK-MEL-2 melanoma): 53.5 µM | TGI (SNB-19 CNS): > 100 µM | TGI (SW-620 colon): > 100 µM

CN(CCO)CCCC1COc2ccccc2O1 (stereo unspecified)
TGI (BT-549 breast): > 100 µM | TGI (COLO 205 colon): > 100 µM | TGI (HOP-62 NSCLC): > 100 µM | TGI (IGROV1 ovarian): > 100 µM | TGI (MALME-3M melanoma): > 100 µM | TGI (SNB-19 CNS): > 100 µM | TGI (SNB-75 CNS): > 100 µM | TGI (SW-620 colon): > 100 µM

COc1cc([C@@H]2c3cc4c(cc3[C@@H](Nc3ccccc3C(=O)c3ccccc3)[C@H]3COC(=O)[C@H]23)OCO4)cc(OC)c1OC
TGI (BT-549 breast): > 100 µM | TGI (COLO 205 colon): 1.42 µM | TGI (HOP-62 NSCLC): > 100 µM | TGI (IGROV1 ovarian): 90.5 µM | TGI (KM12 colon): 0.653 µM | TGI (MALME-3M melanoma): > 100 µM | TGI (SK-MEL-2 melanoma): > 100 µM | TGI (SNB-19 CNS): > 100 µM | TGI (SW-620 colon): > 81.6 µM

COC12CCCN1c1ccn(Cc3ccccc3)c(=O)c1C2=O (stereo unspecified)
TGI (BT-549 breast): > 100 µM | TGI (COLO 205 colon): > 100 µM | TGI (IGROV1 ovarian): > 100 µM | TGI (KM12 colon): > 100 µM | TGI (MALME-3M melanoma): > 100 µM | TGI (SK-MEL-2 melanoma): > 100 µM | TGI (SNB-19 CNS): > 100 µM | TGI (SNB-75 CNS): > 100 µM | TGI (SW-620 colon): > 100 µM

COc1ccc(NC(=O)CC(=O)n2nc(C)c(N=Nc3cccc(C)c3)c2C)cc1
TGI (BT-549 breast): > 100 µM | TGI (COLO 205 colon): > 100 µM | TGI (HOP-62 NSCLC): > 100 µM | TGI (KM12 colon): > 100 µM | TGI (MALME-3M melanoma): > 100 µM | TGI (SK-MEL-2 melanoma): > 100 µM | TGI (SNB-19 CNS): > 100 µM | TGI (SNB-75 CNS): > 100 µM | TGI (SW-620 colon): > 100 µM

Cc1ccc(-n2cc(-c3ccc(Cl)cc3)c3c(N/N=C4\SCC(=O)N4C)ncnc32)cc1
TGI (BT-549 breast): 82 µM | TGI (COLO 205 colon): 37.5 µM | TGI (HOP-62 NSCLC): 98.8 µM | TGI (IGROV1 ovarian): > 100 µM | TGI (KM12 colon): > 100 µM | TGI (MALME-3M melanoma): 9.48 µM | TGI (SK-MEL-2 melanoma): 6.18 µM | TGI (SNB-19 CNS): 63.1 µM | TGI (SW-620 colon): > 100 µM

Cc1ccc(NC(=O)C(Cc2c[nH]c3ccccc23)NC(=O)Oc2ccccc2)cc1C (stereo unspecified)
TGI (BT-549 breast): > 100 µM | TGI (COLO 205 colon): > 100 µM | TGI (HOP-62 NSCLC): > 100 µM | TGI (IGROV1 ovarian): > 100 µM | TGI (KM12 colon): > 100 µM | TGI (MALME-3M melanoma): 99.5 µM | TGI (SK-MEL-2 melanoma): > 100 µM | TGI (SNB-19 CNS): > 100 µM | TGI (SW-620 colon): > 100 µM

CC1(C)C(=O)c2ccccc2OC1N1CCN(C2Oc3ccccc3C(=O)C2(C)C)CC1 (stereo unspecified)
TGI (BT-549 breast): > 100 µM | TGI (COLO 205 colon): > 100 µM | TGI (HOP-62 NSCLC): > 100 µM | TGI (IGROV1 ovarian): > 100 µM | TGI (KM12 colon): > 100 µM | TGI (MALME-3M melanoma): > 100 µM | TGI (SNB-19 CNS): > 100 µM | TGI (SNB-75 CNS): > 100 µM | TGI (SW-620 colon): > 100 µM

CCCCCCCC(CC(=O)NC(CO)C(=O)NC(CO)CC(C)C)OC(=O)CC(CCCCCCC)OC(=O)CC(CCCCCCC)OC1OC(C)C(O)C(OC2OC(C)C(O)C(O)C2OC(C)=O)C1O (stereo unspecified)
TGI (BT-549 breast): 25.1 µM | TGI (COLO 205 colon): 5.47 µM | TGI (HOP-62 NSCLC): 27.1 µM | TGI (IGROV1 ovarian): 23 µM | TGI (KM12 colon): 10.8 µM | TGI (MALME-3M melanoma): 23.2 µM | TGI (SNB-19 CNS): 20.8 µM | TGI (SNB-75 CNS): 17.6 µM | TGI (SW-620 colon): 22.2 µM

Cc1ccc2c(=O)c(C(=O)Nn3c(C)csc3=S)c[nH]c2n1
TGI (BT-549 breast): > 100 µM | TGI (COLO 205 colon): > 100 µM | TGI (HOP-62 NSCLC): > 100 µM | TGI (IGROV1 ovarian): > 100 µM | TGI (KM12 colon): > 100 µM | TGI (MALME-3M melanoma): > 100 µM | TGI (SK-MEL-2 melanoma): > 100 µM | TGI (SNB-19 CNS): > 100 µM | TGI (SW-620 colon): > 100 µM

CCOC(=O)c1sc2nc(SC)nc3c2c1NCN3c1ccc(F)c(F)c1
TGI (BT-549 breast): > 66.5 µM | TGI (COLO 205 colon): > 100 µM | TGI (HOP-62 NSCLC): 34.1 µM | TGI (IGROV1 ovarian): > 100 µM | TGI (KM12 colon): > 86.5 µM | TGI (MALME-3M melanoma): > 49.1 µM | TGI (SK-MEL-2 melanoma): > 100 µM | TGI (SNB-19 CNS): > 83.2 µM | TGI (SW-620 colon): > 100 µM
